Source: paper PMC3202585, “Venom of Parasitoid, Pteromalus puparum, Suppresses Host, Pieris rapae, Immune Promotion by Decreasing Host C-Type Lectin Gene Expression” (PLoS ONE, 2011)

Target: T1, Pr-CTL (Pieris rapae, UniProt G5CJE6)
T1 construct: two tandem CRDs (residues 41-151 and 184-302)
T1 sequence (G5CJE6 20-313): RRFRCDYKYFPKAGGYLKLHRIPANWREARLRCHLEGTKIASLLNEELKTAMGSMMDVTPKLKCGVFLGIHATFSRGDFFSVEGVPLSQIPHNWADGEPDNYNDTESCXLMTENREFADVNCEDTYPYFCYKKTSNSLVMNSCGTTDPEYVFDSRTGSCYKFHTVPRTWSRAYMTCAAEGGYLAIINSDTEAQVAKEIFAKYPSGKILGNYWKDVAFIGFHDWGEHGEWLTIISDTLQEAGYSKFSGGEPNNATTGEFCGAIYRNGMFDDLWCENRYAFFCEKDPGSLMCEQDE
Test: carbohydrate binding assay (data not shown)
Conditions: calcium-dependent, described as agglutination of carbohydrates

| Structure (SMILES) | carbohydrate binding assay (data not shown) |
| --- | --- |
| OC[C@H]1OC(O)[C@H](O)[C@@H](O)[C@H]1O (some centres unmarked) [galactose] | agglutination of different kind of carbohydrates, such as mannose, galactose and peptidoglycan (data not shown) |
| OC[C@H]1OC(O)[C@@H](O)[C@@H](O)[C@@H]1O (some centres unmarked) [mannose] | recombinant Pr-CTL possesses the calcium-dependent agglutination of different kind of carbohydrates, such as mannose |
